Laboratory results reported in BindingDB's records for PubMed 2547939 (Abbott Laboratories, 1989).

What was measured:
[1] = target: T1, Muscarinic acetylcholine receptor M1 (Rattus norvegicus, UniProt P08482)
T1 sequence (P08482 whole entry): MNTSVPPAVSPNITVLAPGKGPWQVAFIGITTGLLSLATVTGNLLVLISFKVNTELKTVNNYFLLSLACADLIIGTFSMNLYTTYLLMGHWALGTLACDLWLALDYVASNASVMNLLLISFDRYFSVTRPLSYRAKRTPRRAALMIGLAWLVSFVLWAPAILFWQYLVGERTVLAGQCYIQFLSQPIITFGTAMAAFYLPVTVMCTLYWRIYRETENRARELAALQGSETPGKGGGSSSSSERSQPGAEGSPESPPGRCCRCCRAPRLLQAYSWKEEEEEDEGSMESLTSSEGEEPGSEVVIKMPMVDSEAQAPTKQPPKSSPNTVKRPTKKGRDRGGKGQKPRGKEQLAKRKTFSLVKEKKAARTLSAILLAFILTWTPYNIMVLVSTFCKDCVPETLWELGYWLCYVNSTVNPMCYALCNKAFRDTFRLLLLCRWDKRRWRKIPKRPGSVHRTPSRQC

[2] = target: T2, Muscarinic acetylcholine receptor M2 (Rattus norvegicus, UniProt P10980)
T2 sequence (P10980 whole entry): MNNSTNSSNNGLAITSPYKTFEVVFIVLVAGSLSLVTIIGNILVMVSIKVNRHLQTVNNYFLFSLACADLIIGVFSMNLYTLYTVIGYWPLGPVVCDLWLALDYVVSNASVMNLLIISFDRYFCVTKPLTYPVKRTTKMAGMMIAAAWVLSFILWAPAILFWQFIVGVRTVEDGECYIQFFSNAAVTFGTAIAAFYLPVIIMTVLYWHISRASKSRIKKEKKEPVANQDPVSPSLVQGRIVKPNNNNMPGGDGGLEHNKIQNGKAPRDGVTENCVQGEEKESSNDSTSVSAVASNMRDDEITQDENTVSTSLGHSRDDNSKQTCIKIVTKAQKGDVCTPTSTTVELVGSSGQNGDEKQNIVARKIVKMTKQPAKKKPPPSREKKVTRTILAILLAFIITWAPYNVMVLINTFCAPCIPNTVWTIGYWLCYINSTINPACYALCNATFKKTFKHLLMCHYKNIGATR

SMILES	Ki [1]	Ki [2]
O[Si](CCCN1CCCCC1)(c1ccccc1)C1CCCCC1 (stereo not drawn) [HHSiD]	14.8 nM	–
CCN(CC)CC1CCCCN1CC(=O)N1c2ccccc2C(=O)Nc2cccnc21 (stereo not drawn) [(AF-DX 116) 11-[2-(2-Diethylaminomethyl-piperidin-1-yl)-acetyl]-5,11-dihydro-benzo[e]pyrido[3,2-b][1,4]diazepin-6-one]	180 nM	33.9 nM
